From patent publication US6825230B2, “Spiro and dispiro 1,2,4-trixolane antimalarials” (Medicines for Malaria Venture MMV, priority 2002, dated 2004)
Converted amounts (≈) assume the structure as drawn.

Legend:
P. berghei ANKA strain = assay: Divided 3x3 mg/kg and 3x1 mg/kg po doses in infected mice; assay type: in vivo, Plasmodium berghei; conditions: for Activity (%): percent reduction of parasitemia vs control on day 4; for Cured infected mice at the 3×3 mg/kg dose: 3 mg/kg po (SSV) on days 1, 2, 3 post-infection
Method: Moro NMRI male mice (Fu Albino specific pathogen free) weighing 18±2 g were infected intravenously (i.v.) with 2×10^7 P. berghei ANKA strain-infected erythrocytes from donor mice on day 0 of the experiment. From donor mice with circa 30% parasitemia, heparinized blood was taken and diluted in physiological saline to 10^8 parasitized erythrocytes per ml. An aliquot (0.2 ml) of this suspension was injected i.v. into experimental and control groups of mice. […] Throughout the experiments, mice were kept in groups of three or five animals in Makrolon type II cages in an air-conditioned animal room at 22 to 23° C.
They were administered per os (p.o.) in a total volume of 0.01 ml per gram of mouse. The activity of the compound was determined by a variety of methods outlined in subsequent sections. Survival time was also recorded, and survival to day 30 post-infection was considered to be a cure.
The second experiment consists of administration of divided 3×3 mg/kg and 3×1 mg/kg po doses administered on days 1, 2, and 3 post-infection. On day 4 post-infection, blood smears of all animals were prepared and stained with Giemsa. […] Compounds were administered orally in the SSV vehicle.

[1] = test system: Schistosoma mansoni 21-day-old schistosomules; assay: Effect on 21-day-old schistosomules in infected mice; assay type: in vivo; conditions: single 200 mg/kg per os, 21-day-old schistosomules; for % reduction of schistosomule growth at day 21 after per os application of 200 mg/kg, FWR (%): female worm reduction rate; for % reduction of schistosomule growth at day 21 after per os application of 200 mg/kg, TWR (%): total worm reduction rate
Method: Mice were infected with 100 Schistosoma mansoni cercariae on day 21 post-treatment. Each group was treated per os with trioxolanes at a single dose of 200 mg/kg. […] All groups were killed 4 weeks after treatment and the liver and intestine were removed and separated. The liver and intestine were compressed and alive male and female worms could be seen and counted. The effect of the compounds was evaluated by mean total and female worm burden.

[2] = test system: ANKA strain of P. berghei; assay: Single dose STI in vivo screen in infected mice; parameters: species or system Plasmodium berghei; conditions: for Survival (days) 10 mg/kg SSV po: single 10 mg/kg po in SSV; for Activity (%) 10 mg/kg SSV po: single 10 mg/kg po in standard suspending vehicle (SSV) on day 1 post-infection
[3] = test system: chloroquine-sensitive NF54 strain of P. falciparum; assay: In vitro antimalarial semiautomated microdilution assay ([3H]-hypoxanthine incorporation), NF54 strain; assay type: cell-based, Plasmodium falciparum; conditions: Plasmodium falciparum; chloroquine-sensitive NF54 strain, 72 h incubation; read-out: IC50 (ng/ml) NF54
In short: (§1)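 Logit regression analysis yields the fifty percent inhibitory concentration. Compounds are tested by semiautomated microdilution on intraerythrocytic parasites drawn from asynchronous stock cultures, measuring [3H]-hypoxanthine incorporation.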

[4] = test system: chloroquine-resistant K1 strain of P. falciparum; assay: In vitro antimalarial semiautomated microdilution assay ([3H]-hypoxanthine incorporation), K1 strain; assay type: cell-based, Plasmodium falciparum; conditions: Plasmodium falciparum; chloroquine-resistant K1 strain, 72 h incubation; read-out: IC50 (ng/ml) K1
In short: as §1

[5] = 3 × 1 mg/kg p.o. SSV on days 1, 2, 3 post-infection
[6] = 3 × 3 mg/kg p.o. SSV on days 1, 2, 3 post-infection
[7] = percent reduction in parasitemia on day 3

Structure (SMILES)	Survival (P. berghei ANKA strain; [5]) [days]	Activity (%) (P. berghei ANKA strain; [5])	Survival (P. berghei ANKA strain; [6]) [days]	Activity (%) (P. berghei ANKA strain; [6])	% reduction of schistosomule growth at day 21 after per os application of 200 mg/kg, FWR (%) [1] [%]	% reduction of schistosomule growth at day 21 after per os application of 200 mg/kg, TWR (%) [1] [%]	also measured
CCOC(=O)CNCC1CCC2(CC1)OOC1(O2)C2CC3CC(C2)CC1C3.CS(=O)(=O)O (centres unmarked) [compound 290]	6.8	14	10.6	93	–	–	–
CC1(C)CCC2(CC1)OOC1(O2)C2CC3CC(C2)CC1C3 (centres unmarked) [OZ33]	–	–	–	–	14	28	–
O=C(CC1CCC2(CC1)OOC1(O2)C2CC3CC(C2)CC1C3)N1CCC(O)CC1 (centres unmarked) [compound 297]	6.4	22	9.4	89	–	–	–
CC(C)(C)ON=C1CCC2(CC1)OOC1(O2)C2CC3CC(C2)CC1C3 (centres unmarked) [OZ28]	–	–	–	–	87	81	–
Cc1ccc(S(=O)(=O)O)cc1.NCCNC(=O)CC1CCC2(CC1)OOC1(O2)C2CC3CC(C2)CC1C3 (centres unmarked) [compound 305]	9.6	87	12.2	99.91	–	–	–
CS(=O)(=O)O.NC(=O)CCNCC1CCC2(CC1)OOC1(O2)C2CC3CC(C2)CC1C3 (centres unmarked) [compound 319]	13	92	11.2	99.97	–	–	–
NC(=O)c1cn(CC2CCC3(CC2)OOC2(O3)C3CC4CC(C3)CC2C4)cn1 (centres unmarked) [compound 320]	8.6	50	9.6	96	–	–	–
CC(C)(C)CC(=O)N1CCC2(CC1)OOC1(O2)C2CC3CC(C2)CC1C3 (centres unmarked) [OZ111, Adamantane-2-spiro-3′-8′-(3′,3′-dimethylbutanoyl)-1′,2′,4′-trioxa-8′-azaspiro[4.5]decane]	–	–	–	–	68	71	Survival (days) 10 mg/kg po ([2]; single 10 mg/kg po in 3% ethanol and 7% Tween 80, untreated 6-7 days): 7.7 days; Activity (%) 10 mg/kg po ([2]; single 10 mg/kg po in 3% ethanol and 7% Tween 80 on day 1 post-infection, percent reduction in parasitemia on day 3): 98%; Survival (days) 10 mg/kg SSV po ([2]; untreated 6-7 days): 6.3 days; Activity (%) 10 mg/kg SSV po [2, 7]: 79%; Survival (days) 10 mg/kg sc ([2]; single 10 mg/kg sc in 3% ethanol and 7% Tween 80, untreated 6-7 days): 8.3 days; Activity (%) 10 mg/kg sc ([2]; single 10 mg/kg sc in 3% ethanol and 7% Tween 80 on day 1 post-infection, percent reduction in parasitemia on day 3): 99.94%
CS(=O)(=O)O.NCCOc1ccc(C2CCC3(CC2)OOC2(O3)C3CC4CC(C3)CC2C4)cc1 (centres unmarked) [compound 323]	14.4	66	14.4	99.95	–	–	–
CON=C1CC2CC3(CC2C1)OOC1(O3)C2CC3CC(C2)CC1C3 (centres unmarked) [OZ37]	–	–	–	–	53	63	–
NC(=O)CNC(=O)CC1CCC2(CC1)OOC1(O2)C2CC3CC(C2)CC1C3 (centres unmarked) [compound 306]	11	85	7.6	99.75	–	–	–
Oc1ccc(C2CCC3(CC2)OOC2(O3)C3CC4CC(C3)CC2C4)cc1 (centres unmarked) [compound 288]	8.4	49	10.2	99	–	–	–
CC(C)(C)OC(=O)N1CCC2(CC1)OOC1(O2)C2CC3CC(C2)CC1C3 (centres unmarked) [OZ35]	–	–	–	–	63	73	–
CC1(O)CCC2(CC1)OOC1(O2)C2CC3CC(C2)CC1C3 (centres unmarked) [OZ90]	–	–	–	–	79	81	–
O=C(NC[C@H]1CC[C@]2(CC1)OO[C@]1(O2)C2CC3CC(C2)CC1C3)N1CCNCC1 [OZ329]	–	–	–	–	–	–	IC50 [3]: 0.68 ng/mL (≈ 1.68 nM); Cured infected mice at the 3×3 mg/kg dose (P. berghei ANKA strain): 2/5; IC50 [4]: 0.43 ng/mL (≈ 1.06 nM); Survival (days) 3 mg/kg SSV po ([2]; single 3 mg/kg po in SSV): 9.2 days; Activity (%) 3 mg/kg SSV po ([2]; single 3 mg/kg po in SSV, percent reduction in parasitemia on day 3): 99.50%; Survival (days) 10 mg/kg SSV po ([2]; untreated 6-7 days): 11.2 days; Activity (%) 10 mg/kg SSV po [2, 7]: 99.97%
CS(=O)(=O)N1CCC2(CC1)OOC1(O2)C2CC3CC(C2)CC1C3 (centres unmarked) [OZ56]	–	–	–	–	66	69	–
CS(=O)(=O)O.O=C(O)CNCC1CCC2(CC1)OOC1(O2)C2CC3CC(C2)CC1C3 (centres unmarked) [compound 309]	9.4	66	9.2	99	–	–	–
NC1CCN(C(=O)C[C@H]2CC[C@]3(CC2)OO[C@]2(O3)C3CC4CC(C3)CC2C4)CC1 [OZ339]	–	–	–	–	–	–	Cured infected mice at the 3×3 mg/kg dose (P. berghei ANKA strain): 3/5; Survival (days) 3 mg/kg SSV po ([2]; single 3 mg/kg po in SSV): 9.2 days; Survival (days) 10 mg/kg SSV po ([2]; untreated 6-7 days): 10.2 days
O=C1CN(C(=O)CC2CCC3(CC2)OOC2(O3)C3CC4CC(C3)CC2C4)CCN1 (centres unmarked) [compound 296]	7.8	49	9.4	94	–	–	–
c1ccc(CON=C2CCC3(CC2)OOC2(O3)C3CC4CC(C3)CC2C4)cc1 (centres unmarked) [OZ19]	–	–	–	–	74	77	–
NC1(C(=O)NCC2CCC3(CC2)OOC2(O3)C3CC4CC(C3)CC2C4)CCCC1 (centres unmarked) [compound 317]	11.4	73	16.8	100	–	–	–
O=c1ccn(CC2CCC3(CC2)OOC2(O3)C3CC4CC(C3)CC2C4)cc1 (centres unmarked) [compound 302]	13.4	87	13.4	99.51	–	–	–
CC1(C)CC(C)(C)CC2(C1)OOC1(O2)C2CC3CC(C2)CC1C3 (centres unmarked) [OZ26]	–	–	–	–	40	37	–
ON=C1CCC2(CC1)OOC1(O2)C2CC3CC(C2)CC1C3 (centres unmarked) [OZ16]	–	–	–	–	77	78	–
O=C(NN=C1CCC2(CC1)OOC1(O2)C2CC3CC(C2)CC1C3)Nc1ccccc1 (centres unmarked) [OZ30]	–	–	–	–	12	16	–
C1CC2(CCO1)OOC1(O2)C2CC3CC(C2)CC1C3 (centres unmarked) [OZ22]	–	–	–	–	76	75	–
NS(=O)(=O)c1ccc(NCC2CCC3(CC2)OOC2(O3)C3CC4CC(C3)CC2C4)cc1 (centres unmarked) [compound 298]	11	93	16.4	99.99	–	–	–
